Measurements taken from PubChem BioAssay AID330 (DTP/NCI, 2004).
Toxic doses and inconclusive results are not listed. Rule for the calls: active = survival T/C of 150% or more; inactive = T/C below 125% in these data.

System: P388 leukemia ip, CD2F1 mice, survival T/C
Assay: NCI In Vivo Anticancer Drug Screen. Data for tumor model P388 Leukemia (intraperitoneal) in CD2F1 (CDF1) mice
Settings: endpoint: median survival time, higher = longer survival
Procedure, shortened: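 Mice carrying the transplanted tumor received test compound or vehicle. Survival was recorded in each group, and the value is the treated-group measurement divided by that of the vehicle-treated control group.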

[1] = dose: 50.0 mg/kg/injection, schedule: Q01DX009 (ip), vehicle: saline
[2] = dose: 100.0 mg/kg/injection, schedule: Q01DX009 (ip), vehicle: saline
[3] = dose: 200.0 mg/kg/injection, schedule: Q01DX009 (ip), vehicle: saline

Measured: T/C

CCOc1c(OC)cc(C2c3cc4c(c(OCC)c3CC3COC(=O)C32)OCO4)cc1OC (stereo not given)
inactive: dose: 12.5 mg/kg/injection, schedule: Q01DX005 (ip), vehicle: Klucel (hydroxypropylcellulose) (HPC) 94 % of control | dose: 25.0 mg/kg/injection, schedule: Q01DX005 (ip), vehicle: Klucel (hydroxypropylcellulose) (HPC) 91 % of control | dose: 50.0 mg/kg/injection, schedule: Q01DX005 (ip), vehicle: Klucel (hydroxypropylcellulose) (HPC) 86 % of control | dose: 100.0 mg/kg/injection, schedule: Q01DX005 (ip), vehicle: Klucel (hydroxypropylcellulose) (HPC) 97 % of control

O=C(O)CN1CC(=O)N(c2ccccc2)C1=S
inactive: [1] 101 % of control | [2] 97 % of control | [3] 93 % of control

CC(=O)OCC/C(SC(C)=O)=C(/C)N(C=O)Cc1cnc(C)nc1N
inactive: [1] 98 % of control | [2] 94 % of control | [3] 100 % of control
